Experimental data published in patent publication US20250034170A1, “SMALL MOLECULE MODULATORS OF GLUCOCEREBROSIDASE ACTIVITY AND USES THEREOF” (Vanqua Bio, Inc., priority 2021, published 2025).
pEC50: −log10 of the molar value.

Each molecule was assayed against T1, GCase (Homo sapiens, UniProt P04062) (assay: activation of GCase in a live cell PFB assay in HELA cells). Settings: activation of GCase, EC50 ranges.
T1 construct: endogenous in cells; host or cells: HeLa cells
T1 sequence (P04062 40-536): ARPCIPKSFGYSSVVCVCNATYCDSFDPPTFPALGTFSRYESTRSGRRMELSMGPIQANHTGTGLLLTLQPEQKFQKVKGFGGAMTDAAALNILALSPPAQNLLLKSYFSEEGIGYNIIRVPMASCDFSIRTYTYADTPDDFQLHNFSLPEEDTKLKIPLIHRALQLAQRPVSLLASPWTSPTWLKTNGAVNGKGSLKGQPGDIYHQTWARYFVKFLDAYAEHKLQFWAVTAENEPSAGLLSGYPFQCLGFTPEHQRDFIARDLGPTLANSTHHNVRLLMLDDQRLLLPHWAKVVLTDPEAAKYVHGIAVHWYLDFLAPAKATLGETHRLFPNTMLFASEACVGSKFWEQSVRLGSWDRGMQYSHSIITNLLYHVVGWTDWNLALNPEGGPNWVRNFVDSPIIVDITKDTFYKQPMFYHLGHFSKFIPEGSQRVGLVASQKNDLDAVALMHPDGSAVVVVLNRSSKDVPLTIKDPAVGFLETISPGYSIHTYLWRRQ
Assay type: cell-based
Experimental: Exemplary compounds were evaluated for activation of GCase in a live cell PFB assay in HELA cells (essentially as described in Ysselstein et al., “LRRK2 kinase activity regulates lysosomal glucocerebrosidase in neurons derived from Parkinson's disease patients” Nature Communications (2019) 10:5570). […] EC50 ranges: A: <10 μM; B: >10-50 μM; C: >50-100 μM; D: >100 μM.

Row | pEC50 | Structure (SMILES)
1 | 4.30 to 5.00 | O=C1CC2(CCN1c1ccc(C(F)(F)F)nc1)CN(c1cnc3cnn(CC(F)F)c3n1)C2 [Cmpd 910]
2 | 4.30 to 5.00 | O=C1CC2(CCN1c1cnc3cnn(CC(F)F)c3n1)CN(c1ccc(C(F)(F)F)cn1)C2 [Cmpd 911]
3 | 4.30 to 5.00 | O=C1CC2(CCN1c1ccc(C(F)(F)F)cn1)CN(c1cnc3cnn(CC(F)F)c3n1)C2 [Cmpd 912]
4 | 4.30 to 5.00 | O=C1CC2(CCN1c1cnc3cnn(CC(F)F)c3n1)CN(c1ccc(C(F)(F)F)nc1)C2 [Cmpd 913]
5 | 4.30 to 5.00 | CC(c1cnc(C(F)(F)F)nc1)N1CC2(CCN(c3cnc4cnn(CC(F)F)c4n3)CC2)CC1=O (centres unmarked) [Cmpd 914]
6 | > 5.00 | O=C1CC2(CCN(c3cnc4cnn(CC(F)F)c4n3)CC2)CN1Cc1ccnc(C(F)(F)F)n1 [Cmpd 915]
7 | > 5.00 | O=C1CC2(CCN(c3ncc4cnn(CC(F)F)c4n3)CC2)CN1c1cnc(C(F)(F)F)nc1 [Cmpd 916]
8 | 4.00 to 4.30 | O=C1CC2(CCN(c3ncc4cnn(CC(F)F)c4n3)CC2)CN1Cc1cnc(C(F)(F)F)nc1 [Cmpd 917]
9 | 4.30 to 5.00 | O=C1CC2(CCN(c3cnc4cnn(CC(F)F)c4n3)CC2)CN1Cc1ccc(OC(F)(F)F)nc1 [Cmpd 918]
10 | > 5.00 | O=C1CC2(CCN(c3cnc4cnn(CC(F)F)c4n3)CC2)CN1Cc1ccnc(OC(F)F)c1 [Cmpd 919]
11 | 4.30 to 5.00 | O=C1CC2(CCN(c3ncc4cnn(CC(F)F)c4n3)CC2)CN1c1ccc(OCC(F)(F)F)nc1 [Cmpd 921]
12 | > 5.00 | Cn1c(N2CCC3(CC2)CC(=O)N(c2cc(C(F)(F)F)ccn2)C3)nc2c(cnn2CC(F)F)c1=O [Cmpd 922]
13 | > 5.00 | Cn1c(N2CCC3(CC2)CC(=O)N(c2ccnc(C(F)(F)F)c2)C3)nc2c(cnn2CC(F)F)c1=O [Cmpd 923]
14 | > 5.00 | FC(F)(F)Cn1ncc2ncc(N3CCC4(CN(c5ccnc(C(F)(F)F)c5)C4)C3)nc21 [Cmpd 924]
15 | 4.30 to 5.00 | Cn1c(N2CCC3(CC2)CC(=O)N(c2ccc(C(F)(F)F)nc2)C3)nc2c(cnn2CC(F)F)c1=O [Cmpd 925]
16 | 4.30 to 5.00 | Cn1c(N2CCC3(CC2)CC(=O)N(Cc2cnc(C(F)(F)F)nc2)C3)nc2c(cnn2CC(F)F)c1=O [Cmpd 926]
17 | 4.30 to 5.00 | O=C1N(Cc2cnc(C(F)(F)F)cn2)CCC12CCN(c1cnc3cnn(CC(F)F)c3n1)CC2 [Cmpd 927]
18 | 4.30 to 5.00 | Cc1ncc(C(F)(F)F)nc1N1CCC2(CCN(c3cnc4cnn(CC(F)F)c4n3)CC2)C1=O [Cmpd 928]

Row | pEC50 | Structure (SMILES)
19 | 4.30 to 5.00 | COc1cc(N2CC3(CCN(c4cnc5cnn(CC(F)F)c5n4)C3)C2)ccn1 [Cmpd 929]
20 | 4.30 to 5.00 | O=C1CC2(CCN(c3cnc4cnn(CC(F)F)c4n3)CC2)CN1Cc1cnc(C(F)(F)F)cn1 [Cmpd 930]
21 | 4.30 to 5.00 | Cc1nn(C2COC2)c2nc(N3CCC4(CN(c5ccnc(C(F)(F)F)c5)C4)C3)cnc12 [Cmpd 931]
22 | 4.30 to 5.00 | Cc1nn(C2COC2)c2nc(N3CCC4(CN(c5ccnc(C(F)(F)F)c5)C4)C3)ncc12 [Cmpd 932]
23 | > 5.00 | FC(F)(F)c1cc(N2CC3(CCN(c4cnc5cnn(C[C@@H]6CCO6)c5n4)C3)C2)ccn1 [Cmpd 933]
24 | > 5.00 | FC(F)(F)c1cc(N2CC3(CCN(c4cnc5cnn(C[C@H]6CCO6)c5n4)C3)C2)ccn1 [Cmpd 934]
25 | 4.00 to 4.30 | CCOc1nn(CC(F)F)c2nc(N3CCC4(CN(c5cc(C(F)(F)F)nc(C)n5)C4)C3)cnc12 [Cmpd 935]
26 | > 5.00 | COc1nn(CC(F)F)c2nc(N3CCC4(CN(c5ccnc(C(F)(F)F)c5)C4)C3)cnc12 [Cmpd 936]
27 | > 5.00 | CCOc1nn(CC(F)F)c2nc(N3CCC4(CN(c5ccnc(C(F)(F)F)c5)C4)C3)cnc12 [Cmpd 937]
28 | 4.30 to 5.00 | COc1nn(CC(F)F)c2nc(N3CCC4(CN(c5ccnc(C(F)(F)F)c5)C4)C3)ncc12 [Cmpd 938]
29 | > 5.00 | CCOc1nn(CC(F)F)c2nc(N3CCC4(CN(c5ccnc(C(F)(F)F)c5)C4)C3)ncc12 [Cmpd 939]
30 | > 5.00 | COc1nn(CC(F)F)c2nc(N3CCC4(CC3)CC(=O)N(c3ccnc(C(F)(F)F)c3)C4)cnc12 [Cmpd 940]
31 | > 5.00 | CCOc1nn(CC(F)F)c2nc(N3CCC4(CC3)CC(=O)N(c3ccnc(C(F)(F)F)c3)C4)cnc12 [Cmpd 941]
32 | 4.30 to 5.00 | COc1nn(CC(F)F)c2nc(N3CCC4(CC3)CC(=O)N(c3nccc(C(F)(F)F)n3)C4)cnc12 [Cmpd 942]
33 | > 5.00 | COc1nn(C2COC2)c2nc(N3CCC4(CN(c5ccnc(C(F)(F)F)c5)C4)C3)cnc12 [Cmpd 943]
34 | > 5.00 | CCOc1nn(C2COC2)c2nc(N3CCC4(CN(c5ccnc(C(F)(F)F)c5)C4)C3)cnc12 [Cmpd 944]
35 | 4.30 to 5.00 | COc1nn(C2COC2)c2nc(N3CCC4(CN(c5ccnc(C(F)(F)F)c5)C4)C3)ncc12 [Cmpd 945]

The remaining lines, values behind:

Row | Structure (SMILES) | pEC50
36 | CCN1C(=O)N(c2ccc(C(F)(F)F)nc2)C(=O)C12CCN(c1ncc3cnn(CC(F)F)c3n1)CC2 [Cmpd 873] | 4.30 to 5.00
37 | CCN1C(=O)N(c2ccc(C(F)(F)F)nc2)C(=O)C12CCN(c1ncc3c(C)nn(CC(F)F)c3n1)CC2 [Cmpd 874] | > 5.00
38 | O=C1N(c2ccc(C(F)(F)F)nc2)C(=O)C2(CCN(c3ncc4cnn(CC(F)F)c4n3)CC2)N1CC(F)F [Cmpd 875] | > 5.00
39 | O=C1N(c2ccc(C(F)(F)F)nc2)C(=O)C2(CCN(c3cnc4cnn(CC(F)F)c4n3)CC2)N1CC(F)F [Cmpd 876] | 4.30 to 5.00
40 | O=C1N(c2ccc(C(F)(F)F)nc2)C(=O)C2(CCN(c3cnc4cnn(CC(F)F)c4n3)CC2)N1CCOC(F)(F)F [Cmpd 877] | > 5.00
41 | CCN1C(=O)N(c2ccc(C(F)(F)F)nc2)C(=O)C12CCN(c1ncc3c(C)nn(C4COC4)c3n1)CC2 [Cmpd 878] | 4.30 to 5.00
42 | CN1C(=O)N(c2ccc(C(F)(F)F)nc2)C(=O)C12CCN(c1cnc3cnn(CC(F)F)c3n1)CC2 [Cmpd 879] | > 5.00
43 | O=C1N(c2ccc(C(F)(F)F)nc2)C(=O)C2(CCN(c3cnc4cnn(CC(F)F)c4n3)CC2)N1CCC1CC1 [Cmpd 880] | > 5.00
44 | O=C1N(c2ccc(C(F)(F)F)nc2)C(=O)C2(CCN(c3cnc4cnn(CC(F)F)c4n3)CC2)N1CCCC(F)(F)F [Cmpd 881] | > 5.00
45 | O=C1N(c2ccc(C(F)(F)F)nc2)C(=O)C2(CCN(c3cnc4cnn(CC(F)F)c4n3)CC2)N1Cc1cncc(F)c1 [Cmpd 883] | 4.30 to 5.00
46 | Cc1nn(C2COC2)c2nc(N3CCC4(CC3)CCN(c3ccc(C(F)(F)F)nc3)C4=O)ncc12 [Cmpd 884] | 4.30 to 5.00
47 | Cc1nn(C2COC2)c2nc(N3CCC4(CC3)CCN(c3ccc(C(F)(F)F)nc3)C4=O)cnc12 [Cmpd 885] | 4.30 to 5.00
48 | O=C1N(c2ccc(C(F)(F)F)nc2)CCC12CCN(c1cnc3cnn(C4COC4)c3n1)CC2 [Cmpd 886] | 4.30 to 5.00
49 | Cc1nn(C2COC2)c2nc(N3CCC4(CCN(c5ccc(C(F)(F)F)nc5)C4)CC3)ncc12 [Cmpd 887] | 4.30 to 5.00
50 | Cc1nn(C2COC2)c2nc(N3CCC4(CCN(c5ccc(C(F)(F)F)nc5)C4)CC3)cnc12 [Cmpd 888] | > 5.00
51 | CCn1ncc2cnc(N3CCC4(CC3)CC(=O)N(c3ccc(C(F)(F)F)nc3)C4)nc21 [Cmpd 889] | > 5.00
52 | CCn1ncc2ncc(N3CCC4(CC3)CC(=O)N(c3ccc(C(F)(F)F)nc3)C4)nc21 [Cmpd 890] | > 5.00

Row | Structure (SMILES) | pEC50
53 | O=C1CC2(CCN(c3cnc4cnn(CC(F)F)c4n3)CC2)CN1c1ccc(Cl)nc1 [Cmpd 891] | 4.30 to 5.00
54 | O=C1CC2(CCN(c3cnc4cnn(CC(F)F)c4n3)CC2)CN1c1cncc(Cl)c1 [Cmpd 893] | > 5.00
55 | O=C1CC2(CCN(c3cnc4cnn(CC(F)F)c4n3)CC2)CN1Cc1cnc(OCC(F)(F)F)nc1 [Cmpd 894] | 4.30 to 5.00
56 | O=C1CC2(CCN(c3cnc4cnn(CC(F)F)c4n3)CC2)CN1c1ccnc(C(F)(F)F)n1 [Cmpd 895] | > 5.00
57 | O=C1N(c2ccnc(C(F)(F)F)n2)CCC12CCN(c1cnc3cnn(CC(F)F)c3n1)CC2 [Cmpd 896] | > 5.00
58 | Cc1nn(CC(F)F)c2nc(N3CCC4(CC3)CCN(c3ccnc(C(F)(F)F)n3)C4=O)cnc12 [Cmpd 897] | > 5.00
59 | Cc1nn(CC(F)F)c2nc(N3CCC4(CC3)CC(=O)N(c3ccnc(C(F)(F)F)n3)C4)cnc12 [Cmpd 898] | > 5.00
60 | Cc1nc(N2CC3(CCN(c4ncc5c(n4)n(C4COC4)c(=O)n5C)C3)C2)cc(C(F)(F)F)n1 [Cmpd 899] | > 5.00
61 | O=C1N(c2ccnc(C(F)(F)F)n2)CCC12CCN(c1ncc3cnn(CC(F)F)c3n1)CC2 [Cmpd 900] | > 5.00
62 | O=C1CC2(CCN(c3ncc4cnn(CC(F)F)c4n3)CC2)CN1c1ccnc(C(F)(F)F)n1 [Cmpd 901] | > 5.00
63 | Cc1nn(CC(F)F)c2nc(N3CCC4(CC3)CC(=O)N(c3ccnc(C(F)(F)F)n3)C4)ncc12 [Cmpd 903] | > 5.00
64 | CCC1N(c2ccnc(C(F)(F)F)n2)C(=O)CC12CCN(c1cnc3cnn(CC(F)F)c3n1)CC2 (centres unmarked) [Cmpd 904] | > 5.00
65 | CCC1N(c2cnc(C(F)(F)F)nc2)C(=O)CC12CCN(c1cnc3cnn(CC(F)F)c3n1)CC2 (centres unmarked) [Cmpd 905] | 4.30 to 5.00
66 | CCN1C(=O)N(c2ccnc(C(F)(F)F)n2)C(=O)C12CCN(c1cnc3cnn(CC(F)F)c3n1)CC2 [Cmpd 906] | 4.30 to 5.00
67 | O=C1CC2(CCN(c3cnc4cnn(C5COC5)c4n3)CC2)CN1c1ccnc(C(F)(F)F)n1 [Cmpd 907] | > 5.00
68 | CCN1C(=O)N(c2ccnc(C(F)(F)F)n2)C(=O)C12CCN(c1cnc3cnn(C4COC4)c3n1)CC2 [Cmpd 909] | 4.30 to 5.00
